The text below walks through data of patent publication USRE43005E1, “Compositions and methods for their preparation from lepidium” (Naturex Inc., priority 1999, dated 2011).

Each structure is given as a SMILES string.

As for `CCCCCCCC(=O)NCc1ccccc1` [MA-3, N-benzyl octanamide], the melting point was 76 to 78 °C.
As for `CCC(=O)/C=C/C=C/C=C/C(=O)CCCCCCCC(=O)NCc1ccccc1` [MA-9, N-benzyl-9,16-dioxo-10E,12E,14E-octadecatrienamide], the figure is 115 to 116 °C.
